From ChEMBL document CHEMBL5143547, “Antimycobacterial and anti-inflammatory activities of thiourea derivatives focusing on treatment approaches for severe pulmonary tuberculosis” (Bioorg Med Chem, 2022)
Active and inactive are the calls of the source. The calls are words filed in the database; no cut-off is given here.

Key:
[1] = test system: RAW264.7; assay: Inhibition of NO production in mouse RAW264.7 cells incubated for 24 hrs by Griess reagent based analysis; format: functional, cell-based; details: RAW264.7, 24 h
[2] = Cytotoxicity against LPS-stimulated mouse RAW264.7 cells after 24 hrs by MTT assay; format: toxicity, cell-based; details: LPS-stimulated RAW264.7 cells
[3] = test system: Mycobacterium tuberculosis; assay: Antitubercular activity against Mycobacterium tuberculosis H37Rv assessed as reduction in microbial growth after 5 days by MTT assay; format: functional; details: 120 h, time 5 day
[4] = Selectivity index, ratio of CC50 for cytotoxicity against LPS-stimulated mouse RAW264.7 cells to MIC50 for antitubercular activity against Mycobacterium tuberculosis H37Rv; format: toxicity, cell-based; details: LPS-stimulated RAW264.7 cells, read-out: Selectivity Index
[5] = test system: Mycobacterium tuberculosis; assay: Antitubercular activity against Mycobacterium tuberculosis M299 infected in mouse RAW264.7 cells assessed as reduction in intracellular microbial growth after 4 days followed by cell lysis and measured after 21 days; format: functional; details: M299, 96 h, time 4 day
[6] = Selectivity index, ratio of CC50 for cytotoxicity against LPS-stimulated mouse RAW264.7 cells to MIC50 for antitubercular activity against Mycobacterium tuberculosis M299; format: toxicity, cell-based; details: LPS-stimulated RAW264.7 cells, read-out: Selectivity Index
[7] = test system: Mycobacterium tuberculosis; assay: Antitubercular activity against Mycobacterium tuberculosis H37Rv infected in mouse RAW264.7 cells assessed as reduction in microbial growth after 4 days followed by cell lysis and measured after 21 days; format: functional; details: 96 h, time 4 day
[8] = test system: Mycobacterium tuberculosis; assay: Antitubercular activity against Mycobacterium tuberculosis M299 assessed as reduction in microbial growth after 5 days by MTT assay; format: functional, organism-based; details: M299, 120 h
[9] = test system: RAW264.7; assay: Anti-inflammatory activity against LPS-stimulated mouse RAW264.7 cells assessed as reduction in TNFalpha protein expression level after 24 hrs by ELISA; format: functional, cell-based; details: RAW264.7, 24 h
[10] = test system: RAW264.7; assay: Anti-inflammatory activity against LPS-stimulated mouse RAW264.7 cells assessed as reduction in IL1beta protein expression level after 24 hrs by ELISA; format: functional, cell-based; details: RAW264.7, 24 h
[11] = test system: RAW264.7; assay: Anti-inflammatory activity against LPS-stimulated mouse RAW264.7 cells assessed as reduction in iNOS protein expression level at 100 uM after 24 hrs by immunoblot analysis relative to control; format: functional
[12] = test system: RAW264.7; assay: Anti-inflammatory activity against LPS-stimulated mouse RAW264.7 cells assessed as reduction in TNFalpha protein expression level at 12.5 uM after 24 hrs by ELISA; format: functional, cell-based
[13] = test system: RAW264.7; assay: Anti-inflammatory activity against LPS-stimulated mouse RAW264.7 cells assessed as reduction in iNOS protein expression level at 50 uM after 24 hrs by immunoblot analysis; format: functional, cell-based

Structure (SMILES)	IC50 [1]	CC50 at 24 h [2]	MIC50 [3]	selectivity ratio [4]	MIC50 [5]	selectivity ratio [6]	MIC50 [7]	IC50 [8]	IC50 [9]	IC50 [10]	inhibition at 100 µM [11]	inhibition [12]	inhibition [13]
COc1cc(NC(=S)NC#N)cc(OC)c1OC	3.9 µM	≥ 200 µM	184 µM	> 1.1									
COc1ccc(CN2CCN(C(=S)Nc3ccccc3)CC2)c(OC)c1OC	≥ 200 µM	34.9 µM	16 µM	2.2									
CC(C)NC(=S)NCc1ccccc1	≥ 200 µM	≥ 200 µM	57.8 µM	> 3.5									
S=C(NCCc1ccccc1)N1CCN(c2ncccn2)CC1	≥ 200 µM	40.6 µM	34.9 µM	1.2									
CCCCN1CCN(C(=S)NCc2ccccc2)CC1	≥ 200 µM	≥ 200 µM	157 µM	> 1.3									
Oc1ccc(N2CCN(C(=S)Nc3ccccc3)CC2)cc1	155 µM	186 µM	155 µM	1.2									
COc1cc(NC(=S)Nc2cc(OC)c(OC)c(OC)c2)cc(OC)c1OC	31.8 µM	60.6 µM	64.2 µM	0.9									
S=C(Nc1ccccc1)Nc1ccc(Br)cc1	1.9 µM	27.1 µM	28.9 µM	0.9									
O=C(O)c1ccc(NC(=S)NCc2ccccc2)cc1O	8.1 µM	197 µM	5.9 µM	33.3	24.7 µM	8	10.9 µM	24.7 µM	28.4 µM	47.9 µM	≤ 100%	Active	
O=C(NNC(=S)NCc1ccccc1)c1ccccc1	≥ 200 µM	42.1 µM	33.7 µM	1.3									
S=C(Nc1ccccc1)N1CCN(c2ccccn2)CC1	≥ 200 µM	≥ 200 µM	9.5 µM	> 21.1									
CO[C@H]1/C=C/O[C@@]2(C)Oc3c(C)c(O)c4c(O)c(c(/C=N/N5CCN(C)CC5)c(O)c4c3C2=O)NC(=O)/C(C)=C\C=C\[C@H](C)[C@H](O)[C@@H](C)[C@@H](O)[C@@H](C)[C@H](OC(C)=O)[C@@H]1C [RIFAMPIN]			0.2 µM					1.2 µM					
CC(C)c1ccc(NC(=S)NCc2ccccc2)cc1	2.4 µM	121 µM	2.3 µM	52.5	5.6 µM	15.5	1.7 µM	7.8 µM	4 µM	55.7 µM	≤ 100%	Active	Active
S=C(NCc1ccccc1)N1CCN(c2ncccn2)CC1	≥ 200 µM	50.9 µM	17.8 µM	2.9									
COc1cc(NC(=S)NCCc2ccccc2)cc(OC)c1OC	4.1 µM	≥ 200 µM	8.6 µM	> 25	12.9 µM	≥ 8.1	7.7 µM	24.8 µM	15.3 µM	80.2 µM	≤ 100%	Active	
CNC(=N)NCCC[C@H](N)C(=O)O [TILARGININE ACETATE]	78.3 µM												
S=C(NCCc1ccccc1)N1CCN(c2ccccn2)CC1	≥ 200 µM	40.6 µM	12.6 µM	3.2									
COc1cc(NC(=S)N2CCN(c3ccc(O)cc3)CC2)cc(OC)c1OC	≥ 200 µM	17.3 µM	80.9 µM	0.2									
CCN(CC)C(=S)NCc1ccccc1	15.7 µM	≥ 200 µM	40.2 µM	> 4.9									
S=C(NCCc1ccccc1)N1CCN(c2nc3ccccc3[nH]2)CC1	≥ 200 µM	33.7 µM	20 µM	1.7									
S=C(NCc1ccccc1)N(c1ccccc1)c1ccccc1	≥ 200 µM	67.6 µM	≥ 200 µM	0.3									
OCCN(CCO)C(=S)Nc1ccccc1	50.7 µM	≥ 200 µM	≥ 200 µM	> 1									
CN(C[C@H](O)[C@@H](O)[C@H](O)[C@H](O)CO)C(=S)NCc1ccccc1	≥ 200 µM	104 µM	134 µM	0.8									
